The values below come from PMC3764917 (Journal of medicinal chemistry, 2012).

The conditions of data set [1]: humans; cited from earlier work.
For data set [2], the target named is T1, FAAH (Rattus norvegicus, UniProt P97612).
T1 sequence (P97612 1-579): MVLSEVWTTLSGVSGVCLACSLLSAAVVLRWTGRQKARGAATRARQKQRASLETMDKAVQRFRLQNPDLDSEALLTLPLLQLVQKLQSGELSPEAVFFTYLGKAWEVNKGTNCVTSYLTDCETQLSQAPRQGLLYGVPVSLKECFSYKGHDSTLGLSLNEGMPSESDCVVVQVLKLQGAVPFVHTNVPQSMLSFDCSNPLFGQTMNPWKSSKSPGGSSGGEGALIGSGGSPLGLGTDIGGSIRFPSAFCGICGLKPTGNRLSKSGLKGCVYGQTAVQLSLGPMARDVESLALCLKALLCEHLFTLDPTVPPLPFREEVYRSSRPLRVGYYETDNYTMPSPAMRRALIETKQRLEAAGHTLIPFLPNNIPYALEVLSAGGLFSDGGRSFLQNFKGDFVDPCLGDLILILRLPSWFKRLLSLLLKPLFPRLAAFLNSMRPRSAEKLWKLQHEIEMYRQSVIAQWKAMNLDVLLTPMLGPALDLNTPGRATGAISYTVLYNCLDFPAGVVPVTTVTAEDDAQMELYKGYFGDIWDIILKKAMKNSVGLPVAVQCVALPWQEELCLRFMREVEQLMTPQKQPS
The data set can be described thus: FAAH activity: [3H]anandamide hydrolysis by total rat brain homogenates. In kind it is biochemical.

For data set [3], the target named is T2, ovine COX-1 (Ovis aries, UniProt P05979).
T2 sequence (P05979 25-600): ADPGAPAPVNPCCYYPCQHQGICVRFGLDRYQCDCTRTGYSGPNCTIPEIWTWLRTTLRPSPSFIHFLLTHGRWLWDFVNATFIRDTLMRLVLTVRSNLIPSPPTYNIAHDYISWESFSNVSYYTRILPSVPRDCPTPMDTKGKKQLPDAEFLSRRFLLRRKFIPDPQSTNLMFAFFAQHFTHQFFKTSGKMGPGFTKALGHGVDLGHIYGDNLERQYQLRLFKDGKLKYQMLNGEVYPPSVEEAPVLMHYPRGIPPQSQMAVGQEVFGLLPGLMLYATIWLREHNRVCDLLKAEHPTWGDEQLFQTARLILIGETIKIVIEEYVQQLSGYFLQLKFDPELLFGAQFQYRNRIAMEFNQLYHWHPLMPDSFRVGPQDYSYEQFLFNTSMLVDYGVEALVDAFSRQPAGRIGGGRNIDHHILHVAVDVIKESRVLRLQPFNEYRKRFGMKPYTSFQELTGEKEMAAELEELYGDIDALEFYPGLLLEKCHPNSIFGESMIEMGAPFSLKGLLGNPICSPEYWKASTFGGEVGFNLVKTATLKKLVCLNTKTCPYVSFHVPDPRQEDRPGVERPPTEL
Put plainly: COX activity, commercial enzyme immunoassay kit.

For data set [4], the target named is T3, human COX-2 (Homo sapiens, UniProt P35354).
T3 sequence (P35354 18-604): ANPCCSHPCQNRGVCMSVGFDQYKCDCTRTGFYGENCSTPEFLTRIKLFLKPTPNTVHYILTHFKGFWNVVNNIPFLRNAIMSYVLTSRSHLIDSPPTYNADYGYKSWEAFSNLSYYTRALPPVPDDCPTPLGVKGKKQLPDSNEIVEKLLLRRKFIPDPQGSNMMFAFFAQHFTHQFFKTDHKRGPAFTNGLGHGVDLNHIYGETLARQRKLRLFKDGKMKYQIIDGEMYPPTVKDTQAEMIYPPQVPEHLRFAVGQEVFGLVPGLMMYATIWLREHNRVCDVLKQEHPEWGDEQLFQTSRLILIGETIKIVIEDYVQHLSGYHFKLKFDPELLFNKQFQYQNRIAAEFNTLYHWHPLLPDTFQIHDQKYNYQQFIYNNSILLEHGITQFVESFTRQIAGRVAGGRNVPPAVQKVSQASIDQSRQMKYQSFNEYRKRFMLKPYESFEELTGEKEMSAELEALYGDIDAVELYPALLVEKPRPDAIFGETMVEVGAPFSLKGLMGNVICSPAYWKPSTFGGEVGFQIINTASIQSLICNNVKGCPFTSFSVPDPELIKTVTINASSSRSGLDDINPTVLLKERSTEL
The data set can be described thus: COX activity, commercial enzyme immunoassay kit.

For data set [5], the system named is COX-2. The following applies: oxygen electrode assay, arachidonic acid as substrate; cited from earlier work.

Structures can show the parent of a compound that is named as a salt.

For the molecule `CC(C(=O)O)c1ccc2c(c1)[nH]c1ccc(Cl)cc12` (centres unmarked) [Compound 1, carprofen], the “ulcerogenic side effects compared to other NSAIDs” value in data set [1] is given as “reduced ulcerogenic side effects”.
Molecule `CC(C(=O)O)c1ccc2c(c1)[nH]c1ccccc12` (centres unmarked) [Compound 2, 2-(9H-carbazol-2-yl)propanoic acid] had an IC50 in data set [2] of 5 µM.
Regarding `COC(=O)C(C)c1ccc2c(c1)[nH]c1ccc(Cl)cc12` (centres unmarked) [Compound 3, Methyl 2-(6-chloro-9H-carbazol-2-yl)propanoate], the “COX-1 inhibition, result in words” value in data set [3] is “lack of activity”. Also, the “COX-2 inhibition, result in words” value in data set [4] is reported as “lack of activity”.
Consider `CC(C(=O)NCCO)c1ccc2c(c1)[nH]c1ccc(Cl)cc12` (centres unmarked) [Compound 4a, 2-(6-chloro-9H-carbazol-2-yl)-N-(2-hydroxyethyl)propanamide], for which, in data set [3], the “COX-1 inhibition, result in words” value is on record as “lack of activity”. For the same molecule, the “COX-2 inhibition, result in words” value in data set [4] is recorded as “lack of activity”.
For the molecule `CC(C(=O)Nc1ccccc1)c1ccc2c(c1)[nH]c1ccc(Cl)cc12` (centres unmarked) [Compound 4b, 2-(6-chloro-9H-carbazol-2-yl)-N-phenylpropanamide], the “COX-1 inhibition, result in words” value in data set [3] is “lack of activity”. Also, the “COX-2 inhibition, result in words” value in data set [4] is “lack of activity”.
`CC(C(=O)O)c1ccc2c3cc(Cl)ccc3n(Cc3ccccc3)c2c1` (centres unmarked) [Compound 6b, 2-(9-benzyl-6-chloro-9H-carbazol-2-yl)propanoic acid]: the “increase in FAAH potency compared to 1” value in data set [2] (ratio of FAAH IC50 values versus compound 1) came out at 3 fold.
Turning to `COc1ccccc1Cn1c2ccc(Cl)cc2c2ccc(C(C)C(=O)O)cc21` (centres unmarked) [Compound 6g, 2-(6-chloro-9-(2-methoxybenzyl)-9H-carbazol-2-yl)propanoic acid], the “FAAH activity at 30 μM, result in words” value in data set [2] (30 μM) is reported as “no activity”.
In turn, `CCCCCCNC(=O)n1c2ccc(Cl)cc2c2ccc(C(C)C(=O)O)cc21` (centres unmarked) [Compound 10a, 2-(6-chloro-9-(hexylcarbamoyl)-9H-carbazol-2-yl)propanoic acid] gave an IC50 in data set [2] of 3 µM.
As to `CNC(=O)n1c2ccc(Cl)cc2c2ccc(C(C)C(=O)O)cc21` (centres unmarked) [Compound 10b, 2-[6-chloro-9-(methylcarbamoyl)carbazol-2-yl]propanoic acid], the “FAAH inhibition, result in words” value in data set [2] is “no inhibition”.
The same measure, in the same setting: with `CCCCNC(=O)n1c2ccc(Cl)cc2c2ccc(C(C)C(=O)O)cc21` (centres unmarked) [Compound 10c, 2-(9-(butylcarbamoyl)-6-chloro-9H-carbazol-2-yl)propanoic acid] the entry was “no inhibition”.
With `CCCCCCOC(=O)n1c2ccc(Cl)cc2c2ccc(C(C)C(=O)O)cc21` (centres unmarked) [Compound 12, 2-(6-chloro-9-((hexyloxy)carbonyl)-9H-carbazol-2-yl)propanoic acid], the “weaker potency against FAAH compared to 10a” value in data set [2] (ratio of FAAH IC50 values versus 10a) is reported as 10 fold.
Regarding `CC(=O)n1c2ccc(Cl)cc2c2ccc(C(C)C(=O)O)cc21` (centres unmarked) [Compound 15a, 2-(9-acetyl-6-chloro-9H-carbazol-2-yl)propanoic acid], the “FAAH inhibition, result in words” value in data set [2] is given as “did not show any inhibitory potency”. For the same molecule, in data set [3], the “COX-1 inhibition, result in words” value is reported as “did not show any inhibitory potency”. In data set [4], the “COX-2 inhibition, result in words” value is “did not show any inhibitory potency”.
Take `CC(C(=O)O)c1ccc2c3cc(Cl)ccc3n(C(=O)c3ccc(F)cc3)c2c1` (centres unmarked) [Compound 15d, 2-(6-chloro-9-(4-fluorobenzoyl)-9H-carbazol-2-yl)propanoic acid]: the “COX-1 inhibition, result in words” value in data set [3] is given as “did not inhibit”. The “COX-2 inhibition, result in words” value in data set [4] is reported as “did not inhibit”.
Consider `COc1ccc(C(=O)n2c3ccc(Cl)cc3c3ccc(C(C)C(=O)O)cc32)cc1` (centres unmarked) [Compound 15e, 2-(6-chloro-9-(4-methoxybenzoyl)-9H-carbazol-2-yl)propanoic acid], for which the “COX-1 inhibition, result in words” value in data set [3] is recorded as “did not inhibit”. Moreover, in data set [4], the “COX-2 inhibition, result in words” value is “did not inhibit”.
Take `CC(C(=O)O)c1ccc2c3cc(Cl)ccc3n(C(=O)c3cccc(Cl)c3)c2c1` (centres unmarked) [Compound 15f, 2-(6-chloro-9-(3-chlorobenzoyl)-9H-carbazol-2-yl)propanoic acid]: in data set [3], the “COX-1 inhibition, result in words” value is recorded as “lost”. In addition, in data set [4], the “COX-2 inhibition, result in words” value is listed as “lost”.
For `CC(C(=O)O)c1ccc2c3cc(Cl)ccc3n(C(=O)c3ccccc3Cl)c2c1` (centres unmarked) [Compound 15g, 2-(6-chloro-9-(2-chlorobenzoyl)-9H-carbazol-2-yl)propanoic acid], in data set [3], the “COX-1 inhibition, result in words” value is on record as “lost”. Besides, in data set [4], the “COX-2 inhibition, result in words” value was “lost”.
For `CC(C(=O)O)c1ccc2c3cc(Cl)ccc3n(C(=O)c3ccc(Cl)c(Cl)c3)c2c1` (centres unmarked) [Compound 15h, 2-(6-chloro-9-(3,4-dichlorobenzoyl)-9H-carbazol-2-yl)propanoic acid], in data set [2], the “FAAH inhibition, result in words” value is “total loss of activity”. Also, the “COX-1 inhibition, result in words” value in data set [3] is recorded as “total loss of activity”. Besides, the “COX-2 inhibition, result in words” value in data set [4] is given as “total loss of activity”.
As for `CC(C(=O)O)c1ccc2c3cc(Cl)ccc3n(C(=O)c3c[nH]cn3)c2c1` (centres unmarked) [Compound 15j, 2-(6-chloro-9-(1H-imidazole-4-carbonyl)-9H-carbazol-2-yl)propanoic acid hydrochloride], in data set [2], the IC50 came to 6 µM. In data set [4], the “COX-2 inhibition, result in words” value is “no relevant inhibition”.
Turning to `CC(C(=O)O)c1ccc2c3cc(Cl)ccc3n(C(=O)c3cscn3)c2c1` (centres unmarked) [Compound 15k, 2-(6-chloro-9-(thiazole-4-carbonyl)-9H-carbazol-2-yl)propanoic acid], in data set [2], the “FAAH inhibition, result in words” value is on record as “detrimental”. In data set [3], the “COX-1 inhibition, result in words” value is given as “detrimental”. Moreover, in data set [4], the “COX-2 inhibition, result in words” value was “detrimental”.
In the case of `Cc1cccnc1NC(=O)C(C)c1ccc(CC(C)C)cc1` (centres unmarked) [ibu-am5, N-(3-methylpyridin-2-yl)-2-(4-isobutylphenyl)-propionamide], the “COX-2 inhibition, result in words” value in data set [5] was “inactive”.
As for `CC(C)Cc1ccc(C(C)C(=O)O)cc1` (centres unmarked) [ibuprofen, reference compound], the “FAAH inhibition, result in words” value in data set [2] is on record as “very weak”.

By IC50 is commonly meant the concentration at which inhibition is half-maximal. Low readings indicate inhibition by little substance, high ones a need for much substance.
